{"source": "paper PMC2949076", "about": "(Journal of clinical immunology, 2010)", "key": {"CD8+ T cells in PBMC [1]": {"tested_on": "CD8+ T cells in PBMC", "type": "cell-based, human"}, "CD8+ T cells in PBMC [2]": {"tested_on": "CD8+ T cells in PBMC", "test": "Granzyme B and perforin detection by flow cytometry", "type": "cell-based, human"}}, "note": "Where “and” joins values, the source holds several entries; their conditions need not be identical. Equal values may be shown once."}
{"substance": "staphylococcal enterotoxin B [SEB]", "values": [{"measurement": "CD107a mobilization, monofunctional vs polyfunctional cells", "setting": "CD8+ T cells in PBMC [1]", "value": "increases were observed"}, {"measurement": "IFN-γ-level change in polyfunctional cells", "setting": "CD8+ T cells in PBMC [1]", "value": "increases in IFN-γ observed"}, {"measurement": "CD8+ T cells lacking granule proteins", "setting": "CD8+ T cells in PBMC [2]", "value": "58% and 44.5–70.9%"}]}
